Earlier results in US7807193B2 (priority 2002, dated 2010).

What was measured:
[1] = patients having adult onset diabetes, drug treatment therapy versus insulin treatment
[2] = system: ob/ob mice; conditions: homozygous diabetic mouse model (ob/ob); U.S. application 20020037861 A1

| Structure (SMILES) | Mortality rates [1] | Levels of blood glucose, triglycerides, insulin and glycosylated hemoglobin versus control ob/ob mice not given topiramate [2] |
| --- | --- | --- |
| CN(C)C(=N)N=C(N)N [metformin] | 8% |  |
| CC1(C)O[C@@H]2[C@@H](CO[C@@]3(COS(N)(=O)=O)OC(C)(C)O[C@@H]23)O1 [topiramate, 2,3:4,5-bis-O-(1-methylethylidene)-β-D-fructopyranose sulfamate] |  | significantly lower |
